According to ChEMBL document CHEMBL1131639, “Structural analysis of thrombin complexed with potent inhibitors incorporating a phenyl group as a peptide mimetic and aminopyridines as guanidine substitutes” (J Med Chem, 1998):
Where a SMILES comes first, the peptide text is derived from it.

Assays:
Prothrombin [1] = target: T1, Prothrombin (Homo sapiens, UniProt P00734); assay: (§1) Compound was evaluated for the inhibition of thrombin
Prothrombin [2] = target: T1, Prothrombin; assay: as §1; remark: listed apart in the source
[3] = target: Integrin alpha-IIb/beta-3 (Homo sapiens, UniProt P05106+P08514); assay: Compound was evaluated for inhibition against Fibrinogen Receptor.; assay type: protein-complex assay
Sequence of Integrin alpha-IIb/beta-3 (P05106 27-788 limits assumed): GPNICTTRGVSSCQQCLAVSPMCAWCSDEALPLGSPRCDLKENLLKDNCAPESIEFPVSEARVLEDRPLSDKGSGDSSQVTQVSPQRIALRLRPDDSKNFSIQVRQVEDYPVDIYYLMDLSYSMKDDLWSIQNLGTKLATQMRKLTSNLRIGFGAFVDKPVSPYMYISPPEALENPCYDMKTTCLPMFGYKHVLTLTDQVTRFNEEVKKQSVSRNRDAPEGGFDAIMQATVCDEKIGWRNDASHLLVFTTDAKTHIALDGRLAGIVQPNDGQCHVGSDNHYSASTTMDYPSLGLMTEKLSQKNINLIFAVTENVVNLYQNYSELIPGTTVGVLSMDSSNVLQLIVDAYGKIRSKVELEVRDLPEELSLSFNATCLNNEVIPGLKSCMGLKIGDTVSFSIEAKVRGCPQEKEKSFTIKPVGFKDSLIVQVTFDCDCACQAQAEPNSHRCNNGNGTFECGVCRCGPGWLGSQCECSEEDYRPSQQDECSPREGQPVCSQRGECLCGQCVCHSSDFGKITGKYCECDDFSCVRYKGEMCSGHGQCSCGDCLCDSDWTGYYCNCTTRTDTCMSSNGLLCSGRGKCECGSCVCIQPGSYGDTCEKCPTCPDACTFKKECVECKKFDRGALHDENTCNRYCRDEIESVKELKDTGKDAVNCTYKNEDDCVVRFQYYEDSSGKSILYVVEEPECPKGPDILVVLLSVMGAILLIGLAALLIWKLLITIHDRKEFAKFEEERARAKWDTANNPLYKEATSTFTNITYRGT
Sequence of Integrin alpha-IIb/beta-3 (P08514 32-887 limits assumed): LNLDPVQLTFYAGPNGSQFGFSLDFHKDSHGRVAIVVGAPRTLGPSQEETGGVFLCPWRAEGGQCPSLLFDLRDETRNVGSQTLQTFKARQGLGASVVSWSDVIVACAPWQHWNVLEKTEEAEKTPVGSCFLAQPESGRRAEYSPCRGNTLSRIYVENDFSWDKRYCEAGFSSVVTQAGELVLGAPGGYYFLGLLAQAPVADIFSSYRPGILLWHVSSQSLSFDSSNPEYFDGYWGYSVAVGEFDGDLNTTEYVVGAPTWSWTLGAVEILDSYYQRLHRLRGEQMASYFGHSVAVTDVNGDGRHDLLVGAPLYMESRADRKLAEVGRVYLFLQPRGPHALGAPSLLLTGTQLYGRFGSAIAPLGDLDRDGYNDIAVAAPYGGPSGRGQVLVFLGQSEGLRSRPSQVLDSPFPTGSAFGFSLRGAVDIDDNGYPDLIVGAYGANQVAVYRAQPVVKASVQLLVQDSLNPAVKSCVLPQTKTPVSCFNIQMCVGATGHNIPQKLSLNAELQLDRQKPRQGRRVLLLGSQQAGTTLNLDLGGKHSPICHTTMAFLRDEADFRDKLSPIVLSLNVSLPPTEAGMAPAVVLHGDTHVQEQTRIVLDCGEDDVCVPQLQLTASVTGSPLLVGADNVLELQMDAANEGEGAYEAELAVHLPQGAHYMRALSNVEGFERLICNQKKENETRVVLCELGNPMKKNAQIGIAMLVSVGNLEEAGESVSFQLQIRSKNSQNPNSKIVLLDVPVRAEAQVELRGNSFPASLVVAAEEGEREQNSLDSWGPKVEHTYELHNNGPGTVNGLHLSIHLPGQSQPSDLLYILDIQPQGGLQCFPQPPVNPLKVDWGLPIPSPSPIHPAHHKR
Sequence of Integrin alpha-IIb/beta-3 (P08514 891-1039 limits assumed): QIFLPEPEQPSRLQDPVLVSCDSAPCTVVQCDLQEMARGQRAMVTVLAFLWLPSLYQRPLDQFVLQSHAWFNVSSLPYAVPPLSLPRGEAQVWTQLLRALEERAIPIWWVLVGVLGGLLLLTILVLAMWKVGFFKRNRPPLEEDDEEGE

## NC(N)=NCCCCNC(=O)[C@@H]1CCCN1C(=O)[C@H](N)Cc1ccccc1 (HELM PEPTIDE1{[dF].P.[N=C(N)NCCCCN[*:1]]}$$$$V2.0)
Prothrombin [1]
  Ki: 180 nM

## CC1CCN(C(=O)[C@H](CCCNc2ccc(N)cn2)NS(=O)(=O)c2cccc3c(N(C)C)cccc23)CC1
Prothrombin [2]
  Ki0: 360 nM

## NC(N)=NCCCC[C@H](N)C(=O)NCC(=O)N[C@@H](CC(=O)O)C(=O)N[C@@H](Cc1cc2ccccc2[nH]1)C(=O)O (HELM PEPTIDE1{[N=C(N)NCCCC[C@H](N)C(=O)[*:2]].G.D.[O=C(O)[C@H](Cc1cc2ccccc2[nH]1)N[*:1]]}$$$$V2.0)
[3]
  IC50: 1700 nM
